{"source": "patent US20110257215A1", "about": "“NOVEL CO-CRYSTAL OF TIOTROPIUM BROMIDE” (Boehringer Ingelheim Pharma GmbH CO.KG, priority 2006, published 2011)", "conditions": "solid crystalline form; no method or figures given"}
{"smiles": "C[N+]1(C)C2CC(OC(=O)C(O)(c3cccs3)c3cccs3)CC1C1OC12.NC(N)=O.[Br-]", "note": "(stereo not shown) [tiotropium bromide-urea co-crystal]", "values": [{"measurement": "hygroscopical behaviour", "value": "only very little hygroscopical behaviour"}]}
